Data set [1] can be described thus: Anti-cancer effect of drug-loaded nanogels, test not specified. It is filed as cell-based.
Another data set deals with SR. Description: NCI 60 human tumor cell lines, SRB protein assay, SR. Conditions: SRB protein assay after 2 days, read-out: GI50 (growth inhibition at 50%). In kind it is cell-based. An excerpt: (§1) An analog of AQ10, AQ9 (NSC 727286), has been evaluated by NCI's 60 human tumor cell lines using the SRB protein assay to estimate cell growth and viability after 2 days. […] AQ10 is less cytotoxic than AQ9 in L1210 and HL60 cell lines (Table 1).
For orientation: The SRB assay estimates cell density from bound dye.

The subject of another data set is MOLT-4. Description: NCI 60 human tumor cell lines, SRB protein assay, MOLT-4. Conditions: MOLT-4, SRB protein assay after 2 days; read-out: GI50 (growth inhibition at 50%). In kind it is cell-based.
From the text: as §1

For another data set, the system named is SN12 C renal. Description: NCI 60 human tumor cell lines, SRB protein assay, SN12 C. Conditions: SRB protein assay after 2 days, read-out: GI50 (growth inhibition at 50%). In kind it is cell-based.
From the text: as §1

Another data set relates to K562. Description: NCI 60 human tumor cell lines, SRB protein assay, K562. It is filed as cell-based. Conditions: K562, SRB protein assay after 2 days; read-out: GI50 (growth inhibition at 50%).
From the text: as §1

A further data set concerns HL-60 tumor cells. Put plainly: MTS:PMS viability assay at day 4 in vitro, HL-60. It is filed as cell-based. Conditions: MTS:PMS assay at day 4 in vitro, means ± SD, n = 3.
For a further data set, the system named is HCT-116 colon. Put plainly: NCI 60 human tumor cell lines, SRB protein assay, HCT-116. It is filed as cell-based. Conditions: SRB protein assay after 2 days, read-out: GI50 (growth inhibition at 50%).
From the text: as §1

Another data set has as its system HL-60. Description: NCI 60 human tumor cell lines, SRB protein assay, HL-60. In kind it is cell-based. Conditions: HL-60, SRB protein assay after 2 days; read-out: GI50 (growth inhibition at 50%).
From the text: as §1

A further data set relates to L1210 tumor cells. Put plainly: MTS:PMS viability assay at day 4 in vitro, L1210. In kind it is cell-based. Conditions: MTS:PMS assay at day 4 in vitro, means ± SD, n = 3.
For data set [2], the system named is MDA-MB-231 breast tumor cell line. Put plainly: NCI 60 human tumor cell lines, SRB protein assay, MDA-MB-231. It is filed as cell-based. Conditions: SRB protein assay after 2 days, read-out: GI50 (growth inhibition at 50%).
From the text: as §1
(§2) Similarly TT compounds such as TT24 were synthesized from TT2 and evaluated for their antitumor activities (Hua et al. 2004. Tetrandedron 60:10155-63, Hua et al. […], Hua et al. 2006. Anticancer Agents Med. Chem. 6:303-18, Wang et al. 2002. Cancer Lett. 188:73-83). Selective bromination of TT2 with N-bromosuccinimide (NBS) in DMF followed by addition of allylmethylamine and removal of the allyl protecting group with Pd(PPh3)4 afforded TT24. TT24 (NSC 727284-K), has been evaluated by NCI's 60 human tumor cell lines using the SRB protein assay to estimate cell growth and viability after 2 days.

The test system of a further data set is LL/2 tumor cells. Put plainly: MTS:PMS viability assay at day 4 in vitro, LL/2. It is filed as cell-based. Conditions: MTS:PMS assay at day 4 in vitro, means ± SD, n = 3.
The subject of a further data set is L1210 cells. Description: Inhibition of L1210 cells by TT24. In kind it is cell-based.
The next data set concerns NCI/ADR-RES. Description: NCI 60 human tumor cell lines, SRB protein assay, NCI/ADR-RES. It is filed as cell-based. Conditions: NCI/ADR-RES breast, SRB protein assay after 2 days; read-out: GI50 (growth inhibition at 50%).
From the text: as §2

Data set [3] concerns T47D breast tumor cell line. Put plainly: NCI 60 human tumor cell lines, SRB protein assay, T47D. In kind it is cell-based. Conditions: SRB protein assay after 2 days, read-out: GI50 (growth inhibition at 50%).
From the text: as §2

A further data set has as its system Pan 02 cells. Put plainly: Pan 02 cell viability, MTT assay. In kind it is cell-based, mouse. The protocol: Cell proliferation evaluation. The number of viable cells was evaluated by the MTT ([…]-2,5-diphenyl-tetrazolium bromide) assay (Roche Diagnostics GmbH, Germany) as well as hemocytometer and trypan blue exclusion analysis. Pan 02 cells were seeded in a 96 well plate. […] After incubation for 48 hrs, the medium was replaced with fresh medium containing 0.5 mg of MTT reagent per ml of medium and incubated for four hours at 37° C. Then, 100 μL of solubilization reagent was added to each well and incubated overnight at 37° C. Absorbance was measured in an ELISA plate reader at 550 nm, with the absorbance at 690 nm to correct for background, and viability was expressed as the percentage of untreated controls. To validate the MTT assay, trypan blue exclusion and hemocytometer counting assay was performed in parallel. All experiments were done in duplicate and were performed three times.
Statistical analysis. All values are expressed as means ±SE. Values of untreated cells were taken as […]. Statistical analysis of all Pan 02 cell proliferation assays were analyzed using repeated measures of ANOVA. […] Statistical significance was considered if P<0.05.

Data set [4] is described as follows: Solubility in water / encapsulation. It is filed as physicochemical.
In another data set the test system is TK+UCMS cells. Description: Cell number of TK+UCMS cells exposed to pro-drug. Conditions: dose range of 0 μM to 1600 μM. In kind it is cell-based. An excerpt:
UCMS cells have been successfully engineered for stable expression of HSV-thymidine kinase. […] Thus, the suicide gene system is effective; after GCV administration to mice bearing tumors into which the UCMS-NG-TH (UCMS cells containing nanogels loaded with therapeutic agents) have trafficked, the NG-TH will be released into the tumor interstitium when the stem cells undergo apoptosis.

Entries after “also recorded” stand apart in the source; their conditions may differ.

Take Triton: the “Anti-cancer / antitumor effect” value in [1] is listed as “significantly potentiated the anti-cancer effect”.

Usually GI50 stands for the concentration at which growth is held to half of that of the control. As a reminder, the IC50 is the point on the concentration scale where inhibition reaches its midpoint. A low value points to inhibition by little substance. With `O=C1C=CC(=O)c2cc3cc(CBr)ccc3cc21` [AQ9], the GI50 in the data set with SR was 37.1 nM; in the data set on MOLT-4, less than 10 nM; in the data set with SN12 C renal, 379 nM; in the data set with K562, 339 nM; in the data set on HCT-116 colon, 606 nM; in the data set on HL-60, less than 10 nM. Further, in data set [2], the GI50 came to 735 nM. Moreover, the IC50 worked out at 79 ± 3 nM in the data set with HL-60 tumor cells, 26 ± 1 nM in the data set on L1210 tumor cells and 680 ± 87 nM with LL/2 tumor cells.

In the case of `CNC1=CC(=O)C2=C(C1=O)C1C3=C(C(=O)C(Br)=C(OC)C3=O)C2c2ccccc21` (stereo not shown) [TT24], the midpoint of inhibition in the data set with L1210 cells, the IC50, lay at 48 nM. In addition, the GI50 with NCI/ADR-RES came out at 1550 nM; in [3], 1440 nM; in data set [2] it was 1410 nM.

`O=C1C=CC(=O)c2cc3cc(CO)ccc3cc21` [AQ10, 6-(hydroxymethyl)-1,4-anthracenedione]: the IC50 in the data set on HL-60 tumor cells (Homo sapiens, HL-60, 96 h) was found to be 125 ± 7 nM; in the data set with L1210 tumor cells (Mus musculus, L1210, 96 h), 37 ± 2 nM; in the data set on LL/2 tumor cells (LL/2, 96 h) it was 494 ± 59 nM. Moreover, the “Effect of AQ10 dissolved in DMSO on Pan 02 cell viability / growth” value in the data set on Pan 02 cells (MTT assay, 48 hrs, doses of 4.2, 8.4 and 16.8 μM, vs untreated and DMSO treated cells) is given as “significantly attenuated; also recorded: significant effect; also recorded: significantly decreased”. In the data set with Pan 02 cells (comparison of AQ10-nanogel PEG-PEI with AQ10 alone), the “Growth attenuation of Pan 02 cells, AQ10 in nanogel PEG-PEI relative to AQ10 alone (in DMSO)” value is recorded as “three to four times less effective”. In addition, in data set [4], the Solubility in water entry is given as “insoluble”.

Consider `Nc1nc(O)c2ncn(COC(CO)CO)c2n1` [Ganciclovir], for which the “Cell number of TK+UCMS cells” value with TK+UCMS cells is “Decreased cell number”.

The values above are taken from patent US20110008304A1, “USE OF CELLS TO FACILITATE TARGETED DELIVERY OF NANOPARTICLE THERAPIES” (KANSAS STATE UNIVERSITY RESEARCH FOUNDATION, priority 2007, published 2011).
